For assay [1], the system named is pseudotyped SARS CoV-2 particles. In words: microbe, parasite or virus in culture. It is filed as cell-based. The following applies: Severe acute respiratory syndrome coronavirus 2; read-out: inhibition of pseudotyped SARS CoV-2 virus entry.
The test system of assay [2] is R18 labelled PR8 WT virus. In words: Influenza virus membrane fusion assay (R18 fluorescence). Particulars: 90 min. Format: cell-based, Influenza A virus.
The next assay has as its system SARS-CoV-2. In words: SARS CoV-2 infection studies in the hamster model. It is filed as in vivo, Syrian golden hamsters. The following applies: CQ dosed therapeutically.

Structures can show the parent of a compound that is named as a salt.

As a reminder, the inhibition is the share of the control response that was lost under treatment. `CN(C)C(=O)COC(=O)Cc1ccc(OC(=O)c2ccc(NC(=N)N)cc2)cc1` [CM, Camostat mesylate, reference compound]: the inhibition at 500 µM in assay [1] turned out to be 60%.

For the compound `CCN(CC)CCCC(C)Nc1ccnc2cc(Cl)ccc12` (centres unmarked) [CQ, Chloroquine, reference compound], the inhibition at 10 µM in assay [1] came out at 90%. In addition, the “virus-entry associated increase in fluorescence intensity” value in assay [2] (10 μM CQ) was “able to inhibit”. In addition, the “lung viral loads reduced by” value in the assay with SARS-CoV-2 was approximately 1 log.

On to `Cl.N` [NH4Cl, ammonium chloride], for which the “virus-entry associated increase in fluorescence intensity” value in assay [2] (10 μM NH4Cl) was “able to inhibit”.

Source of the values: patent publication US12268676B2, “Antiviral applications of picolinic acid and its derivatives” (INDIAN INSTITUTE OF SCIENCE, priority 2021, dated 2025).
